Here are results for eight molecules from patent publication US9562035B2, “Benzamide derivative useful as FASN inhibitors for the treatment of cancer” (Janssen Pharmaceutica NV, priority 2013, dated 2017).

pIC50: −log10 of the molar value. Some results are limits rather than exact numbers.

For experiment [1], the system named is A2780 ovarian cells. Briefly: A2780 Ovarian Cell Proliferation Assay in Lipid Reduced Medium, with Palmitate (control). The experiment is classed as cell-based. Particulars: Homo sapiens, A2780; lipid reduced medium, 25 μM palmitate, 96 h, MTT; read-out: Proliferation A2780 with Palmitate pIC50 (converted). As to the method: (§1) The biological assays described below correspond to comparative assays for ovarian cell proliferation. […] Compounds active in the absence of palmitate would not be expected to be active in the control.
(§2) 2500 cells were seeded in a 96-well clear well plate in 200 μL RPMI1640 with 10% Fetal Calf Serum (Hyclone), and incubated at 37° C., 5% CO2. Blanks were wells without cells. The next day the culture medium was aspirated and replaced by 160 μL culture medium with 10% Lipid-Reduced Serum (LRS, Hyclone). 20 μL test compound (at concentrations of 30 μM, 10 μM, 3 μM, 1 μM, 0.30 μM, 0.10 μM, 0.03 μM and 0.01 μM)/DMSO dilution followed by 20 μL palmitate-BSA solution were added to a final concentrations of 0.2% DMSO, 25 μM palmitate (Sigma, P0500, 10 mM stock solution in ethanol) 0.2% fatty-acid-free BSA, 0.25% ethanol. After 96 h incubation, an MTT assay was performed. The absorbance was measured at 544 nm on a SPECTRAMAX.
A best fit curve was fitted by a minimum sum of squares method, plotting Controlmin versus test compound concentration. From the plot, an IC50 (concentration at which 50% inhibition is achieved) was calculated. pIC50 values, presented in the Table below, were calculated as −log(IC50).
(§3) Representative compounds of the present invention were tested according to the procedure as described in Biological Example 3 above, with results as listed in Table BIO-3, below.

Experiment [2] has as its system A2780 ovarian cells. Description: A2780 Ovarian Cell Proliferation Assay in Lipid Reduced Medium, without Palmitate. The experiment is classed as cell-based. Particulars: Homo sapiens, A2780; lipid reduced medium, without palmitate, 96 h, MTT; read-out: Proliferation A2780 w/o Palmitate pIC50 (converted). As to the method:
as §1
as §2, with “ethanol-BSA” for “palmitate-BSA”, “DMSO,” for “DMSO, 25 μM palmitate (Sigma, P0500, 10 mM stock solution in ethanol)”, “incubation” for “incubation,”
(§4) Raw data generated by the instrument were normalized to % Controlmin values, which were calculated as: % Controlmin=100*(x−mLC)/(mHC−mLC)
(§5) where mLC and mHC were the means of the low control wells and high control wells on the plate, after manual exclusion of outliers. A plot of Controlmin versus test compound concentration was fitted to a 4-parameter logistic curve using a non-linear least squares regression method. From the plot, an IC50 (concentration at which 50% inhibition is achieved) was calculated. pIC50 values were calculated as −log(IC50), when IC50 is expressed in molar units.
as §3

For experiment [3], the target named is T1, hFASN enzyme (full length) (Homo sapiens, UniProt P49327).
T1 construct: 10 μL hFASN enzyme (full length, 300 ng, purified in house); made in house
Description: Fatty Acid Synthase (FASN) Inhibition Scintillation Proximity Assay. It is filed as biochemical. Particulars: for pIC50: mean where tested more than once, ~ = standard error of pIC50 larger than 0.5; for inhibition at 10 µM: read-out: FASN % Effect @1E−05M. As to the method: In this assay, inhibition of FASN activity is measured using ^3H-acetyl-CoA and malonyl-CoA as substrates. ^3H-Acetyl CoA is converted to ^3H-palmitate through a series of reactions by the FASN protein, which contains 7 functional domains and carries out 7 enzymatic reactions to ultimately produce ^3H-palmitate. The assay principle is based upon the fact that ^3H-acetyl-CoA is hydrophilic and the end product, ^3H-palmitate is hydrophobic.
10 μL assay buffer (100 mM KH2PO4 pH 7.5, 1 mM DTT) (20 μL in blanks) was added to a 384-well white Opti Plate plate (Perkin Elmer). 0.9 μL test compound (at concentrations of 30 μM, 10 μM, 3 μM, 1 μM, 0.30 μM, 0.10 μM, 0.03 μM and 0.01 μM)/DMSO and 10 μL hFASN enzyme (full length, 300 ng, purified in house) or 10 μL assay buffer was added to the wells. Then 10 μL 450 μM NADPH (Sigma N7505), 18.75 μM [^3H]-acetyl-CoA (Perkin Elmer NET-290L), 150 μM malonyl-CoA (Sigma M4263) were added, mixed and incubated at room temperature for 60 minutes. The reaction was stopped by adding 20 μL Streptavidin coupled imaging beads (25 mg/ml). After incubation for 30 minutes at room temperature in the dark, the 384 well plate was centrifuged at 1500 rpm for 3 minutes and was measured after at least 24 hrs by the LEADseeker™, measuring emission using a 610±20 nm pass filter. (Bays, N. W., et al., “A simplified scintillation proximity assay for fatty acid synthase activity: development and comparison with other FAS activity assays”, J. Biomol. Screen, 2009, pp 636-642, Vol. 14(6).)
as §4, §5
A general note: Scintillation proximity formats need no separation of bound from free tracer.

Experiment [4] deals with T2, FASN Keto-reductase Domain (Homo sapiens, UniProt P49327).
T2 construct: 10 μL hFASN enzyme (full length, 300 ng, purified in house) and 360 μM NADPH; made in house
Description: Fatty Acid Synthase Keto-Reductase Domain (FASN KR) Inhibition. Conditions: mean where tested more than once; read-out: FASN K-R Domain pIC50 (converted). The experiment is classed as biochemical. As to the method: 10 μL assay buffer (100 mM KH2PO4 pH 7.5) was added to a 384-well clear plate (costar 3702). 0.3 μL compound (at concentrations of 30 μM, 10 μM, 3 μM, 1 μM, 0.30 μM, 0.10 μM, 0.03 μM and 0.01 μM)/DMSO, 10 μL hFASN enzyme (full length, 300 ng, purified in house) and 360 μM NADPH (except in blank) were then added. Then, 10 μL 180 mM ethyl acetoacetate (Aldrich 688983) was added, mixed and immediately thereafter, the absorbance at 340 nm (T1) by Multiscan (Labsystems) was measured. After 20 minutes incubation at room temperature the plate was measured again (T2).
The decrease in absorbance was calculated as (Absorbance before incubation T1)−(Absorbance following incubation T2).
as §4, §5

T1 sequence (P49327 whole entry): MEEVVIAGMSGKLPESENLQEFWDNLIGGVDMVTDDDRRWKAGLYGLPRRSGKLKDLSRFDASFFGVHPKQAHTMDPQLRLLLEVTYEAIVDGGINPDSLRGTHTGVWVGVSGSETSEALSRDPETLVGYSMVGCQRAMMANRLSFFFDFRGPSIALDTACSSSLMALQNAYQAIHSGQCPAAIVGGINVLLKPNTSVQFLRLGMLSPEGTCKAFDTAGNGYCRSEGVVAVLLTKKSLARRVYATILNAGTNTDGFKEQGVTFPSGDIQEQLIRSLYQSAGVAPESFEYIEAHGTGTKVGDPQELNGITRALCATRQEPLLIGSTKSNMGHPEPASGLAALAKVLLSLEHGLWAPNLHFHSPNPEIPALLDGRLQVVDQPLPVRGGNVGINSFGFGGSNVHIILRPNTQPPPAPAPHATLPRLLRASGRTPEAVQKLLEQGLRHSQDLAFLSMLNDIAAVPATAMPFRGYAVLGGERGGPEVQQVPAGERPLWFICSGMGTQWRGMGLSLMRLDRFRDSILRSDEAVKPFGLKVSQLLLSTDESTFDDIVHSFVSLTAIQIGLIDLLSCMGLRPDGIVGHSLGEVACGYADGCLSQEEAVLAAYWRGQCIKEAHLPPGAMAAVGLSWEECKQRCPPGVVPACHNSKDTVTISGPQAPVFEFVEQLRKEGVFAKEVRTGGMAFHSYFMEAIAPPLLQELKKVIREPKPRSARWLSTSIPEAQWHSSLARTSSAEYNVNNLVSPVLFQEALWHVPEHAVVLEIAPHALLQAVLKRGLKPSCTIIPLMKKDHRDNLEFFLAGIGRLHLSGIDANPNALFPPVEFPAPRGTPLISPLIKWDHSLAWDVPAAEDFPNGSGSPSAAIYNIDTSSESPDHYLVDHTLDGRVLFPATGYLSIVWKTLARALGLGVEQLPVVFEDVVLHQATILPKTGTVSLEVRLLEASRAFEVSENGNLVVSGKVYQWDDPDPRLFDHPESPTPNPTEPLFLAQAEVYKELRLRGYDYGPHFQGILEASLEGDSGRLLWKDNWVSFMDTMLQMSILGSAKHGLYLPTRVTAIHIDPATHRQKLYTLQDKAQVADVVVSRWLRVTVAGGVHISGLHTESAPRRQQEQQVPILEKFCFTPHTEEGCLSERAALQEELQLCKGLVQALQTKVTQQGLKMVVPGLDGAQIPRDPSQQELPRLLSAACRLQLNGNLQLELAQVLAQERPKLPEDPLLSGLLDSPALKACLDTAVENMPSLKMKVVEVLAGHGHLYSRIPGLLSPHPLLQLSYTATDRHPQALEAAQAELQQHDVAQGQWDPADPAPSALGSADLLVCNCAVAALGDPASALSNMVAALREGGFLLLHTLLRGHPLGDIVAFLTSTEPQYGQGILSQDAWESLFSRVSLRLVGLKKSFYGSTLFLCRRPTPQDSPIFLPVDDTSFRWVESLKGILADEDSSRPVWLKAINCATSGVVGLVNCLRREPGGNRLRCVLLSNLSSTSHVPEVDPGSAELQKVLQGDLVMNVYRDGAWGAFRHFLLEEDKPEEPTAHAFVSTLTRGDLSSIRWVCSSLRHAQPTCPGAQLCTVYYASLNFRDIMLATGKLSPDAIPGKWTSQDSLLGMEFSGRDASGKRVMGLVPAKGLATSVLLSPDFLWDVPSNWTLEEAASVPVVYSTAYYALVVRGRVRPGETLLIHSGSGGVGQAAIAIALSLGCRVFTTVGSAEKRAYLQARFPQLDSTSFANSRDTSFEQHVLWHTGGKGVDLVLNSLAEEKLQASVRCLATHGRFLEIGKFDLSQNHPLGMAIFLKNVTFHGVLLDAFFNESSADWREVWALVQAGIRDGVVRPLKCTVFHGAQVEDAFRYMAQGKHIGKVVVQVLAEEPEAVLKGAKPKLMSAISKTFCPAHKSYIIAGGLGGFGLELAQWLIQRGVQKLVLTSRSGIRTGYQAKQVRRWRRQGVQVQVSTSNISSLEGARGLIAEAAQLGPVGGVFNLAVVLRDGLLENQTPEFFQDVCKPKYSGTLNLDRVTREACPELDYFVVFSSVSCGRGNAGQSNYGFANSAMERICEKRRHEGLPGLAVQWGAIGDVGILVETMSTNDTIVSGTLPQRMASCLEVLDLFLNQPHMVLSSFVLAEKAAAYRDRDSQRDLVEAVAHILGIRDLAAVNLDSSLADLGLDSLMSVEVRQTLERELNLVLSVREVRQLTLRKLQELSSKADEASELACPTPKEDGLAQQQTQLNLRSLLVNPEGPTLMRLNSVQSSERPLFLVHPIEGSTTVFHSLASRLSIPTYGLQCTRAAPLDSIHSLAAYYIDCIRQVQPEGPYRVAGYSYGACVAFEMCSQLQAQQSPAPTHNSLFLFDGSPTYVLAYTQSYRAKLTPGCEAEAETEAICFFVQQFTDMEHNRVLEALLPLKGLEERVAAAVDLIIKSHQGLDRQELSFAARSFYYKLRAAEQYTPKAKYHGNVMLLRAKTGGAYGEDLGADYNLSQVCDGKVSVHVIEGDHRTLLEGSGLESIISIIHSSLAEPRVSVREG
T2 sequence (P49327 whole entry, the tested form may be a part): as the sequence (P49327 whole entry) above

As usually defined, the pIC50 is the IC50 on a negative log10 scale, so that one unit is a factor of ten. Consider `Cc1ccc(C(=O)N2CCC(c3ccc(-c4cnn(C)c4)cc3)CC2)cc1NC(=O)[C@H]1CCCN1C` [Compound 239, (R)-1-methyl-N-(2-methyl-5-(4-(4-(1-methyl-1H-pyrazol-4-yl)phenyl)piperidine-1-carbonyl)phenyl)pyrrolidine-2-carboxamide], for which the figures for the IC50 (in the experiment with A2780 ovarian cells [1]; with A2780 ovarian cells [2]; in experiment [4]) were greater than 10000 nM, 195 nM and 457 nM, respectively. The pIC50 in experiment [3] is 6.91. The inhibition at 10 µM in experiment [3] stood at 110%.

Consider `Cc1ccc(C(=O)N2CCC(c3ccc(-c4cnn(C)c4)cc3)CC2)cc1NC(=O)c1cnccc1Cl` [Compound 114, 4-chloro-N-(2-methyl-5-(4-(4-(1-methyl-1H-pyrazol-4-yl)phenyl)piperidine-1-carbonyl)phenyl)nicotinamide], for which the IC50 in the experiment with A2780 ovarian cells [1] was greater than 10000 nM; with A2780 ovarian cells [2], 537 nM; in experiment [4] it was 631 nM. In experiment [3], this molecule had a pIC50 of 6.50. Also, the inhibition at 10 µM in experiment [3] was 92%.

As to `Cc1ccc(C(=O)N2CC(c3ccc(-c4cnn(C)c4)cc3)C2)cc1NC(=O)c1ccc(N(C)C2CCN(C)CC2)nc1` [Compound 140, 6-(methyl(1-methylpiperidin-4-yl)amino)-N-(2-methyl-5-(3-(4-(1-methyl-1H-pyrazol-4-yl)phenyl)azetidine-1-carbonyl)phenyl)nicotinamide], the IC50 is 7760 nM in the experiment with A2780 ovarian cells [1], roughly 23.4 nM in the experiment with A2780 ovarian cells [2] and 39.8 nM in experiment [4]. In experiment [3], this molecule had a pIC50 of 7.80. In addition, the inhibition at 10 µM in experiment [3] came out at 114%.

Turning to `Cc1ccc(C(=O)N2CCC(c3ccc(-c4cnn(C)c4)cc3)CC2)cc1NC(=O)C1CCN(C(C)C)C1` (stereo not shown) [Compound 207, 1-isopropyl-N-(2-methyl-5-(4-(4-(1-methyl-1H-pyrazol-4-yl)phenyl)piperidine-1-carbonyl)phenyl)pyrrolidine-3-carboxamide], the IC50 in the experiment on A2780 ovarian cells [1] is greater than 10000 nM; with A2780 ovarian cells [2], 182 nM; in experiment [4], 479 nM. Further, in experiment [3], the pIC50 is 6.88. In addition, the inhibition at 10 µM in experiment [3] was found to be 105%.

On to `Cc1ccc(C(=O)N2CC(c3ccc(-c4ccnn4C)cc3)C2)cc1NC(=O)c1ccc(N2CCN(C)CC2)nc1` [Compound 59, N-(2-methyl-5-(3-(4-(1-methyl-1H-pyrazol-5-yl)phenyl)azetidine-1-carbonyl)phenyl)-6-(4-methylpiperazin-1-yl)nicotinamide], for which the IC50 in the experiment with A2780 ovarian cells [1] is 7240 nM; in the experiment on A2780 ovarian cells [2], 93.3 nM; in experiment [4], 115 nM. Also, the pIC50 in experiment [3] was 7.25. Also, the inhibition at 10 µM in experiment [3] stood at 103%.

In the case of `COc1ccc(C(=O)N2CC(c3ccc(-c4cnn(C)c4)cc3)C2)cc1NC(=O)c1ccc(Cl)nc1` [Compound 183, 6-chloro-N-(2-methoxy-5-(3-(4-(1-methyl-1H-pyrazol-4-yl)phenyl)azetidine-1-carbonyl)phenyl)nicotinamide], the IC50 with A2780 ovarian cells [1] is greater than 10000 nM; in the experiment on A2780 ovarian cells [2] it was 407 nM. Also, the inhibition at 10 µM in experiment [3] is 98%.

With `COc1ncccc1C(=O)Nc1cc(C(=O)N2CCC(c3ccc(-c4cnn(C)c4)cc3)CC2)ccc1C` [Compound 118, 2-methoxy-N-(2-methyl-5-(4-(4-(1-methyl-1H-pyrazol-4-yl)phenyl)piperidine-1-carbonyl)phenyl)nicotinamide], the IC50 in the experiment with A2780 ovarian cells [1] is 2750 nM; in the experiment on A2780 ovarian cells [2] it was 389 nM; in experiment [4], 288 nM.

Take `Cc1ccc(C(=O)N2CCC(c3ccc(-c4cnn(C)c4)cc3)CC2)cc1NC(=O)c1ccccc1` [Compound 115, N-(2-methyl-5-(4-(4-(1-methyl-1H-pyrazol-4-yl)phenyl)piperidine-1-carbonyl)phenyl)benzamide]: the figures for the IC50 with A2780 ovarian cells [1] and in the experiment on A2780 ovarian cells [2] were greater than 10000 nM and 162 nM, respectively. Besides, in experiment [3], the inhibition at 10 µM was determined as 99%.
